Assay: Thermogravimetric analysis of the quantity of additive encapsulated in microporous or mesoporous material
Details: for % Encapsulated (g additive/g solid total) × 100: encapsulated in silica by impregnation (Example 1)
[1] = MIL-53 MOF, two steps, 60° C., encapsulation time 1 day
[2] = MIL-53 MOF, two steps, 60° C., encapsulation time 2 days
[3] = MIL-53 MOF, two steps, 60° C., encapsulation time 4 days
[4] = MIL-53 MOF, two steps, 60° C., encapsulation time 7 days
[5] = MIL-88 A (Al) MOF, in-situ encapsulation in one single step (Example 4)
[6] = MIL-88 A (Al) MOF, two steps, encapsulation time 3 days

| % Encapsulated (g additive/g dry solid) × 100 [1] [%] | % Encapsulated (g additive/g dry solid) × 100 [2] [%] | % Encapsulated (g additive/g dry solid) × 100 [3] [%] | % Encapsulated (g additive/g dry solid) × 100 [4] [%] | % Encapsulated (g additive/g dry solid) × 100 [5] [%] | % Encapsulated (g additive/g dry solid) × 100 [6] [%] | % Encapsulated (g additive/g solid total) × 100 [%] | SMILES |
| --- | --- | --- | --- | --- | --- | --- | --- |
| 19.2 | 22.5 | 25 | 25.1 | 12.2 | 8.9 | 56.9 | CC(C)=CCCC(C)CC(=O)O (stereo not shown) [Citronellic acid, citronellic acid] |
| 17.2 | 33.4 | 35.3 | 44.0 | 13.4 | 10.6 | 55.7 | CC(C)=CCC/C(C)=C/C(=O)O [Geranic acid, geranic acid] |
| 22.1 | 32.0 | 29.1 | 36.7 | 10.9 | 11.3 | 55.0 | CC(C)=CCC/C(C)=C/CO [Geraniol, geraniol] |
| 26.0 | 22.1 | 26.1 | 25.2 | 21.7 | 21.0 | 58.7 | CCCCN(CCC(=O)OCC)C(C)=O [IR3535, ethyl 3-[acetyl(butyl)amino]propanoate] |

From patent US20170267560A1, “TABLETS FOR TREATING AND DISINFECTING WATER” (ERCROS, S.A., priority 2014, published 2017)
